For one test, the target named is T1, TBK1 (Homo sapiens, UniProt Q9UHD2).
T1 sequence (Q9UHD2 1-729): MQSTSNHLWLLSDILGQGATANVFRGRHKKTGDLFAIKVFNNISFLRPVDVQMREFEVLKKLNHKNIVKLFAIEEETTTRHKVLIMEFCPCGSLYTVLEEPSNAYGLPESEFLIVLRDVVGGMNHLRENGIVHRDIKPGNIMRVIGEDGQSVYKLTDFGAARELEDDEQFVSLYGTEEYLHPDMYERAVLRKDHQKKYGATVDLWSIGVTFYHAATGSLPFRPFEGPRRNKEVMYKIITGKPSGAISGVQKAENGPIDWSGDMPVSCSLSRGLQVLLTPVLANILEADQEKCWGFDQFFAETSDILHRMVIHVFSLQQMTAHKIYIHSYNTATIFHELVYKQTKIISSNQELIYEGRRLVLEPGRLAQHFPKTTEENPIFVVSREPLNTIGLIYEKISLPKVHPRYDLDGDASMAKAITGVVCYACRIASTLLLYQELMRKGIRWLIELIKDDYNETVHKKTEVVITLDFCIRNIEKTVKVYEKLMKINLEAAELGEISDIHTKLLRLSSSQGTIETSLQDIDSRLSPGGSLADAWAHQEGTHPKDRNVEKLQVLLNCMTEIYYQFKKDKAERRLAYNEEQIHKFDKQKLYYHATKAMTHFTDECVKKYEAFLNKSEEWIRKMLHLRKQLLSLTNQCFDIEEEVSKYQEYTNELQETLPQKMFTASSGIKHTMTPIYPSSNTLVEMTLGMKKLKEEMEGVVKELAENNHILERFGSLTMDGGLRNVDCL
Kind of test: TBK Biochemical Assay. The note with it: read-out: TBK1 IC50. The essentials: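 TBK1 enzyme and substrate incubated with compounds (10-point 1:4 dilution, top 30 uM final, 1% DMSO) for 90 min at 25° C, then stopped. Substrate/product peaks read by microfluidic mobility-shift (Caliper LabChip); 10 uM staurosporine as full-inhibition control.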

A further test concerns the target T2, IKKε (Homo sapiens, UniProt Q14164).
T2 sequence (Q14164 1-716): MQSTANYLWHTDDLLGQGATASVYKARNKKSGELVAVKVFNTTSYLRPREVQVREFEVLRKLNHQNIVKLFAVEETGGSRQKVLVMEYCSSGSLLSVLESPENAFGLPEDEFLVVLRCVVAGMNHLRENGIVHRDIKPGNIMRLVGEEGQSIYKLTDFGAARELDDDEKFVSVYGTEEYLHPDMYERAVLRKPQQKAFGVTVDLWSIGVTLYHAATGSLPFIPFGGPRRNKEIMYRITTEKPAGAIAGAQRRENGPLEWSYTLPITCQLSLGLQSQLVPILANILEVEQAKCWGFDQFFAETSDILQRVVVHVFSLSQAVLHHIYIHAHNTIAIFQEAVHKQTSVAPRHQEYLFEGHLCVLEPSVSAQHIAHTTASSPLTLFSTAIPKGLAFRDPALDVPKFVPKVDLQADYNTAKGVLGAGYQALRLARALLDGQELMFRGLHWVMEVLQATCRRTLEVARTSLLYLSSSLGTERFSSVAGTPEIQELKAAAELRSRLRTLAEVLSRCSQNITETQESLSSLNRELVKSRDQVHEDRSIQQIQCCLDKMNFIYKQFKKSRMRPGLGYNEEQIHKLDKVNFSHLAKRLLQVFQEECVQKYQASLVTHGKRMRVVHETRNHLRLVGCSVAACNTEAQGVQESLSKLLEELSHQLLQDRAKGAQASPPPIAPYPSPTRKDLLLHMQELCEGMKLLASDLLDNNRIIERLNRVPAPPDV
The test can be described thus: IKKe Biochemical Assay. The note with it: read-out: IKKε IC50. Put shortly:
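Recombinant IKKε and substrate were incubated with compound (10-point 1:4 series, top 30 uM final, 1% DMSO) for 90 min at 25° C, then stopped. Substrate-to-product conversion was read by LabChip microfluidic mobility shift; 10 uM staurosporine served as full-inhibition wells.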

Test [1] relates to phosphorylation of the IRF-3 protein in MDA-MB-468 cells. Kind of test: pIRF3 immunocytochemistry cell based assay. The essentials: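 MDA-MB-468 cells got compounds (10-point, 3-fold from 10 uM) for 1 h at 37 °C, then 10 ug/ml Poly(I:C) for 2 h. Fixed, permeabilized cells were immunostained for pIRF3 with AlexaFluor488 and counterstained with PI. % phosphorylation was read by laser scanning cytometry, and IC50 curves were fitted.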

[2] abbreviates: Homo sapiens, MDA-MB-468 cells, Poly(I:C) stimulation, read-out: pIRF3 IC50.
Setting [3] is: Homo sapiens, MDA-MB-468, read-out: pIRF3 IC50.

Where two headings read alike, the source gives them in different places.

As for `COc1cc(C(=O)NC2C3COCC32)ncc1-c1cc2nccc(-c3ccc(N4CC[C@H](F)C4)c(C#N)c3)c2o1` (stereo partly drawn) [Compound 451, 5-(7-[3-cyano-4-[(3S)-3-fluoropyrrolidin-1-yl]phenyl]furo[3,2-b]pyridin-2-yl)-4-methoxy-N-[3-oxabicyclo[3.1.0]hexan-6-yl]pyridine-2-carboxamide], the IC50 is less than 100 nM on TBK1, less than 100 nM on IKKε and 100 to 1000 nM in test [1] (setting [2]).
With `COc1cc(C(=O)N2CC3CN(C)CC3C2)cnc1-c1cc2nccc(-c3ccc(N4CC[C@@H](F)C4)c(C#N)c3)c2o1` (stereo partly drawn) [Compound 452, 2-[(3R)-3-fluoropyrrolidin-1-yl]-5-[2-[3-methoxy-5-([5-methyl-octahydropyrrolo[3,4-c]pyrrol-2-yl]carbonyl)pyridin-2-yl]furo[3,2-b]pyridin-7-yl]benzonitrile], the IC50 at TBK1 was less than 100 nM; on IKKε it was less than 100 nM; in test [1] (setting [3]), 100 to 1000 nM.
As to `COc1cc(C(=O)N2CC[C@@H](N(C)C)C2)cnc1-c1cc2nccc(-c3ccc(N4CCC(F)C4)c(C#N)c3)c2o1` (stereo partly drawn) [Compound 454, 5-[2-(5-[[(3R)-3-(dimethylamino)pyrrolidin-1-yl]carbonyl]-3-methoxypyridin-2-yl)furo[3,2-b]pyridin-7-yl]-2-(3-fluoropyrrolidin-1-yl)benzonitrile], the IC50 was less than 100 nM at TBK1, less than 100 nM on IKKε and 100 to 1000 nM in test [1] (setting [2]).
For `COc1cc(C(=O)N2CC[C@@H](N(C)C)C2)cnc1-c1cc2nccc(-c3ccc(N4CC[C@H](F)C4)c(C#N)c3)c2o1` [Compound 455, 5-[2-(5-[[(3R)-3-(dimethylamino)pyrrolidin-1-yl]carbonyl]-3-methoxypyridin-2-yl) (S)-furo[3,2-b]pyridin-7-yl]-2-(3-fluoropyrrolidin-1-yl)benzonitrile], the IC50 (at TBK1; on IKKε; in test [1] (setting [2])) was less than 100 nM each time.
As for `COc1cc(C(=O)N2CC[C@@H](N(C)C)C2)cnc1-c1cc2nccc(-c3ccc(N4CC[C@@H](F)C4)c(C#N)c3)c2o1` [Compound 456, 5-[2-(5-[[(3R)-3-(dimethylamino)pyrrolidin-1-yl]carbonyl]-3-methoxypyridin-2-yl) (R)-furo[3,2-b]pyridin-7-yl]-2-(3-fluoropyrrolidin-1-yl)benzonitrile], the IC50 (on TBK1; on IKKε; in test [1] (setting [2])) was less than 100 nM throughout.
For `COc1cc(C(=O)N2CC[C@@H](N(C)C)C2)ncc1-c1cc2nccc(-c3ccc(N4CCC(F)C4)c(C#N)c3)c2o1` (stereo partly drawn) [Compound 457, 5-[2-(6-[[(3R)-3-(dimethylamino)pyrrolidin-1-yl]carbonyl]-4-methoxypyridin-3-yl)furo[3,2-b]pyridin-7-yl]-2-(3-fluoropyrrolidin-1-yl)benzonitrile], the IC50 (at TBK1; at IKKε; in test [1] (setting [2])) was less than 100 nM in each case.
For `COc1cc(C(=O)N2CC[C@@H](N(C)C)C2)ncc1-c1cc2nccc(-c3ccc(N4CC[C@@H](F)C4)c(C#N)c3)c2o1` [Compound 459, 5-[2-(6-[[(3R)-3-(dimethylamino)pyrrolidin-1-yl]carbonyl]-4-methoxypyridin-3-yl)furo[3,2-b]pyridin-7-yl]-2-[(3R)-3-fluoropyrrolidin-1-yl]benzonitrile], the IC50 (at TBK1; at IKKε; in test [1] (setting [2])) was less than 100 nM each time.
In the case of `COc1cc(C(=O)N2CCN(C)CC2)cnc1-c1cc2nccc(-c3ccc(N4CCC(F)C4)c(C#N)c3)c2o1` (stereo not drawn) [Compound 460, 2-(3-fluoropyrrolidin-1-yl)-5-(2-[3-methoxy-5-[(4-methylpiperazin-1-yl)carbonyl]pyridin-2-yl]furo[3,2-b]pyridin-7-yl)benzonitrile], the IC50 is less than 100 nM on TBK1, less than 100 nM on IKKε and 100 to 1000 nM in test [1] (setting [2]).
For `COc1cc(C(=O)N2CCN(C)CC2)cnc1-c1cc2nccc(-c3ccc(N4CC[C@H](F)C4)c(C#N)c3)c2o1` [Compound 461, 2-(3(S)-fluoropyrrolidin-1-yl)-5-(2-[3-methoxy-5-[(4-methylpiperazin-1-yl)carbonyl]pyridin-2-yl]furo[3,2-b]pyridin-7-yl)benzonitrile], the IC50 (at TBK1; at IKKε; in test [1] (setting [2])) was less than 100 nM each time.
Turning to `COc1cc(C(=O)N2CCN(C)CC2)cnc1-c1cc2nccc(-c3ccc(N4CC[C@@H](F)C4)c(C#N)c3)c2o1` [Compound 462, 2-(3(R)-fluoropyrrolidin-1-yl)-5-(2-[3-methoxy-5-[(4-methylpiperazin-1-yl)carbonyl]pyridin-2-yl]furo[3,2-b]pyridin-7-yl)benzonitrile], the half-maximal inhibitory concentration (IC50) (at TBK1; on IKKε; in test [1] (setting [2])) was less than 100 nM in each case.
Take `COc1cc(C(=O)N2CCN(C)CC2)ncc1-c1cc2nccc(-c3ccc(N4CC[C@H](F)C4)c(C#N)c3)c2o1` [Compound 463, 2-((S)-3-Fluoro-pyrrolidin-1-yl)-5-{2-[4-methoxy-6-(4-methyl-piperazine-1-carbonyl)-pyridin-3-yl]-furo[3,2-b]pyridin-7-yl}-benzonitrile]: the IC50 (at TBK1; at IKKε; in test [1] (setting [2])) was less than 100 nM each time.
Consider `COc1cc(C(=O)NC2C3COCC32)cnc1-c1cc2nccc(-c3ccc(N4CC[C@@H](F)C4)c(C#N)c3)c2o1` (stereo partly drawn) [Compound 466, 6-{7-[3-Cyano-4-((R)-3-fluoro-pyrrolidin-1-yl)-phenyl]-furo[3,2-b]pyridin-2-yl}-5-methoxy-N-(3-oxa-bicyclo[3.1.0]hex-6-yl)-nicotinamide], for which the IC50 at TBK1 was less than 100 nM; at IKKε, less than 100 nM; in test [1] (setting [2]), 100 to 1000 nM.
As to `COc1cc(C(=O)NC2C3COCC32)cnc1-c1cc2nccc(-c3ccc(N4CC[C@H](F)C4)c(C#N)c3)c2o1` (stereo partly drawn) [Compound 467, 6-{7-[3-Cyano-4-((S)-3-fluoro-pyrrolidin-1-yl)-phenyl]-furo[3,2-b]pyridin-2-yl}-5-methoxy-N-(3-oxa-bicyclo[3.1.0]hex-6-yl)-nicotinamide], the IC50 at TBK1 was less than 100 nM; at IKKε, less than 100 nM; in test [1] (MDA-MB-468 cells, Poly(I:C) stimulation, read-out: pIRF3 IC50) it was 100 to 1000 nM.
Take `COc1cc(-c2cc3nccc(-c4ccc(OC5CCOCC5)c(C#N)c4)c3o2)ccc1C(=O)N(C)C` [Compound 470, 4-[7-[3-cyano-4-(oxan-4-yloxy)phenyl]furo[3,2-b]pyridin-2-yl]-2-methoxy-N,N-dimethylbenzamide]: the IC50 was less than 100 nM on TBK1, less than 100 nM at IKKε and 100 to 1000 nM in test [1] (setting [3]).
In the case of `COc1cc(C(=O)N(C)C)ccc1-c1cc2nccc(-c3ccc(NC4CC(C)(C)OC(C)(C)C4)c(C#N)c3)c2o1` [Compound 471, 4-(7-[3-cyano-4-[(2,2,6,6-tetramethyloxan-4-yl)amino]phenyl]furo[3,2-b]pyridin-2-yl)-3-methoxy-N,N-dimethylbenzamide], the figures for the IC50 (at TBK1; on IKKε; in test [1] (setting [2])) were 100 to 1000 nM, 100 to 1000 nM and 1000 to 5000 nM, respectively.

For orientation: IC50 means the point on the concentration scale where inhibition reaches its midpoint.

Values taken from US10428080B2, “TBK/IKK inhibitor compounds and uses thereof” (Merck Patent GmbH, priority 2015, dated 2019).
